Laboratory results published in patent US7491415B2 (priority 2005, dated 2009).
In brackets after ≈: the same amount, converted by molar mass. Several values for one entry are separate records, joined by “and”; a condition that tells them apart may be missing. Identical values can stand only once. Like-named read-outs stand apart in the source and are kept apart here.

What was measured:
[1] = test system: Magnaporthe grisea; test: microbe, parasite or virus in culture; type: cell-based; details: Pyricularia oryzae
[2] = test system: Magnaporthe grisea; type: in vivo; details: RCB rice blast, infected leaf area after 7 days
[3] = test system: Fusarium oxysporum; test: microbe, parasite or virus in culture; type: cell-based
[4] = test system: Botrytis cinerea; test: microbe, parasite or virus in culture; type: cell-based
[5] = test system: Alternaria kikuchiana; test: microbe, parasite or virus in culture; type: cell-based
[6] = test system: ICR mice; test: Acute toxicity test, oral, mice; type: in vivo
Procedure: (§1) To perform an acute toxicity test of Chloranthus henryi extract and the sesquiterpene compound of formula (1), 6-week-old ICR mice (♂, 25 g, Korean Bio Corp.) were divided into 4 groups with two mice per each group, and raised under the condition of 22±3° C., 55±10% (humidity), 12L/12D (intensity of illumination). The mice were adapted for 1 week, and freely fed with foods for test animals (Jeil Feed Corp., Korea, for mouse and rat) and sterilized water.
(§2) Chloranthus henryi extract and the sesquiterpene compound of formula (1) were dissolved in a small amount of dimethyl sulfoxide (DMSO), and diluted with 1% carboxylmethyl cellulose. Four groups of mice were orally administered with 540 mg/kg, 180 mg/kg, 60 mg/kg and 20 mg/kg, respectively. Control group was administered with 1% carboxylmethyl cellulose. For 7 days after the administration, the presence of side effects or mortality was observed as follows. […] The changes in clinical signs and mortality of animals after administration were observed twice everyday for 7 days, i.e., in the morning and in the afternoon.
(§3) Further, the internal organs of the dead mice were examined through macroscopic observation after necropsy on the 7th day. The change in body weight of animals by Chloranthus henryi extract and sesquiterpene compound of formula (1) was observed everyday after administration.

[7] = Acute toxicity test, oral, mice; type: in vivo; details: male, mouse, in vivo, ICR mice, single administration, 7 days observation
Procedure: as §1, §2, §3

[8] = test system: Pythium ultimum; test: microbe, parasite or virus in culture; type: cell-based; details: Globisporangium ultimum
[9] = test system: Puccinia recondita; type: in vivo
[10] = test system: Corticium sasaki; type: in vivo; details: after 8 days
[11] = test system: Colletotrichum lagenarium; test: microbe, parasite or virus in culture; type: cell-based; details: Colletotrichum orbiculare
[12] = test system: Rhizoctonia solani; test: microbe, parasite or virus in culture; type: cell-based
[13] = test system: Phytophthora infestans; type: in vivo; details: for In vivo control values: TLB tomato late blight, after 4 days

## C/C=C(\C)C(=O)OC[C@]1(O)[C@H]2C[C@H]2[C@]2(C)[C@@H]3CC4=C5[C@H](/C(=C(\C)C(=O)OC)C(=O)[C@H](O)[C@@]5(C)[C@@H]5C[C@H]45)[C@@]34OC(=O)C(COC(C)=O)=C4C[C@@H]12 [CHE-23C]
[1]
  MIC: 4 µg/mL (≈ 5.91 µM)
[2]; 11 ppm spray
  In vivo control values: 67%
[2]; 33 ppm spray
  In vivo control values: 50%
[2]; 100 ppm spray
  In vivo control values: 72%
[3]
  MIC: 16 µg/mL (≈ 23.6 µM)
[4]
  MIC: 8 µg/mL (≈ 11.8 µM)
[5]
  MIC: 8 µg/mL (≈ 11.8 µM)
[6]; 540 mg/kg, 7 days
  mortality in the maximum dosage group: all the mice in the maximum dosage group (540 mg/kg) survived
[6]; 20-540 mg/kg, all treated groups, necropsy on the 7th day
  gross findings caused by the test materials: no significant gross findings
[7]
  LD50 at 7 days: > 540 mg/kg
[8]
  MIC: 1 µg/mL (≈ 1.48 µM)
[9]; after 7 days
  In vivo control values: 100% and 87% and 80%
[9]; in vivo
  control values in the greenhouse experiments (in words): potent control values
[10]
  In vivo control values: 69% and 50%
[11]
  MIC: 8 µg/mL (≈ 11.8 µM)
[12]
  MIC: 16 µg/mL (≈ 23.6 µM)
[13]; Phytophthora infestans, greenhouse
  control values in the greenhouse experiments (in words): potent control values
[13]; 11 ppm spray
  In vivo control values: 29%
[13]; 33 ppm spray
  In vivo control values: 91%
[13]; 100 ppm spray
  In vivo control values: 93%
